Measurements from patent publication US6277825A (priority 1999, dated 2001).
Where “and” joins values, the source holds several entries; their conditions need not be identical. Identical values can stand only once.

Tests used:
CF #1 Mice = tested on: CF #1 Mice; design: TD50: unit not given beside the values; details: mouse, in vivo
[1] = tested on: Frings audiogenic seizure-susceptible mice; details: mouse, in vivo
NR1-1b/NR2B NMDA subtype = target: T1, NR1-1b/NR2B NMDA subtype (Homo sapiens, UniProt Q05586+Q13224); test: cell-based
T1 construct: expressed in transfected cells; host or cells: oocytes

CF No. 1 mice = details: mouse, in vivo
[2] = tested on: young (<2 weeks old) mice; assay type: in vivo; details: mouse, in vivo
[3] = tested on: young (<2 weeks old) mice; assay type: in vivo; details: mouse, in vivo; remark: listed apart in the source
[4] = tested on: young (<2 weeks old) mice; assay type: in vivo; details: mouse, in vivo; remark: listed apart in the source

T1 sequence (Q13224 27-1484, other chains not shown): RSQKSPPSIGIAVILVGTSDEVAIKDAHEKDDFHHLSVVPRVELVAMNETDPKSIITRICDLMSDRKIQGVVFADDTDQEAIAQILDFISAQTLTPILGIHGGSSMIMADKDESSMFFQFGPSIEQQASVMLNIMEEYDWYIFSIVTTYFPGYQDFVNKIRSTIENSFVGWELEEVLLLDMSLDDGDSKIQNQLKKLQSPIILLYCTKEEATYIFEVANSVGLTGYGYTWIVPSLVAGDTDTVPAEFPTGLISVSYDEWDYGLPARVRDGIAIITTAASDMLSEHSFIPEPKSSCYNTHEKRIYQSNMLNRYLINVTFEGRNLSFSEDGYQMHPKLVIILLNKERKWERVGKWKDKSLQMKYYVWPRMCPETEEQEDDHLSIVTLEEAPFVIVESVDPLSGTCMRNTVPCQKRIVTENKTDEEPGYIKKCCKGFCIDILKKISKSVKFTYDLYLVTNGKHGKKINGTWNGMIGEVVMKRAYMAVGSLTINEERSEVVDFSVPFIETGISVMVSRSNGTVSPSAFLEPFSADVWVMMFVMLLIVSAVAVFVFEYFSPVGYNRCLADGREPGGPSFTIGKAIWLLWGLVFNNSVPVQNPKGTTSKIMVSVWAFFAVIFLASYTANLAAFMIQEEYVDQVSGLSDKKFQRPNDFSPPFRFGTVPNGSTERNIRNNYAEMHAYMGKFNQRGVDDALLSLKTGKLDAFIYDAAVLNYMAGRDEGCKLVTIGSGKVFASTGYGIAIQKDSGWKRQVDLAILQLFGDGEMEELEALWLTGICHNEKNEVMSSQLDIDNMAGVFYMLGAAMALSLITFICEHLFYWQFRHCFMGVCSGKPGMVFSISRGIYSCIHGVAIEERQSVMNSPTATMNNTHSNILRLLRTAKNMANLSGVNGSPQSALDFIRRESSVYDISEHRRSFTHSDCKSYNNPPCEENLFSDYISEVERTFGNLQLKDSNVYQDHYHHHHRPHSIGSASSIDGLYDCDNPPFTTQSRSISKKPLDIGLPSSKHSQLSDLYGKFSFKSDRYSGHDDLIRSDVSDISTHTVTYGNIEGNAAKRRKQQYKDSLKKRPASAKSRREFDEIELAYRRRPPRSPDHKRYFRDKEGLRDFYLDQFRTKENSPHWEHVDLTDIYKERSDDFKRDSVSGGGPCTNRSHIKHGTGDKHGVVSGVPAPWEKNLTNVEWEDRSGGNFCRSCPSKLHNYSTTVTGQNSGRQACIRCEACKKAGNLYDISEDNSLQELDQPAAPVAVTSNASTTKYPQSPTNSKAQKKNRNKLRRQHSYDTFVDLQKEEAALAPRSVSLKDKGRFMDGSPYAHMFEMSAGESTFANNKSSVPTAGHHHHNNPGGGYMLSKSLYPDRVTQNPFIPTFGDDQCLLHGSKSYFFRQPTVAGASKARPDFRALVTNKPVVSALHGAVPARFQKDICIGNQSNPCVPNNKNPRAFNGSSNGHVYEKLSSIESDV

Row | Molecule | anticonvulsant activity (CF No. 1 mice) | Sleepy Test, positive mice/tested [2] | Catalepsy Test, positive mice/tested [3] | Righting Reflex, mice that lost reflex/tested [4] | also measured
1 | CC[C@H](C)[C@H](NC(=O)[C@H](CC(N)=O)NC(=O)[C@H](CC(C(=O)O)C(=O)O)NC(=O)[C@H](CCCNC(=N)N)NC(=O)[C@H](C)NC(=O)[C@H](CC(C)C)NC(=O)[C@H](CC(C(=O)O)C(=O)O)NC(=O)[C@H](C)NC(=O)[C@H](C)NC(=O)[C@H](CCSC)NC(=O)[C@H](CCCCN)NC(=O)[C@H](C)NC(=O)[C@@H](NC(=O)[C@H](CC(C(=O)O)C(=O)O)NC(=O)[C@H](CC(C(=O)O)C(=O)O)NC(=O)[C@H](CCC(=O)O)NC(=O)CN)C(C)C)C(=O)N[C@@H](C)C(=O)N[C@@H](CCCCN)C(=O)NCC(=O)N[C@H]1CSSC[C@@H](C(=O)N[C@@H](Cc2ccc(O)cc2)C(=O)N2CCC[C@H]2C(=O)O)NC(=O)[C@H](CC(N)=O)NC(=O)[C@H](C(C)C)NC(=O)[C@H](CCCCN)NC1=O [Con R, Conantokin R] |  |  |  |  | P.I. (TD50/ED50) (CF #1 Mice): 3.6; TD50 (CF #1 Mice): ~ 0.300; P.I. (TD50/ED50) [1]: 17; Protective Index, PI (TD50/ED50) [1]: 18; TD50 [1]: 0.228; protective index relative to that of valproic acid [1]: at least eight times better; Ki (NR1-1b/NR2B NMDA subtype): 140 nM; inhibition at 3 µM (NR1-1b/NR2B NMDA subtype; read-out: inhibition of the current produced in response to glutamate and glycine): ~95%
2 | Conantokin Ca2 [Con Ca2] | anticonvulsant activity |  |  |  | 
3 | Conantokin Gm [Con Gm] | anticonvulsant activity |  |  |  | 
4 | Conantokin L [Con L] | anticonvulsant activity | 4/4 | 4/4 and 3/4 | 2/4 and 3/4 | 
5 | Conantokin Oc [Con Oc] |  | 2/3 and 0/3 | 0/3 | 0/3 | 
6 | Conantokin Qu [Con Qu] | anticonvulsant activity |  |  |  | 
